Results taken from patent publication US20110038917A1, “THERAPEUTIC COMPOSITIONS AND METHODS FOR TREATING GRAM-NEGATIVE BACTERIAL INFECTIONS” (RQ Bioscience, Inc., priority 2007, published 2011).

Test system: Pseudomonas aeruginosa infection
Assay: Self-administered inhalation by a cystic fibrosis patient with Pseudomonas aeruginosa infection: patient-reported signs of infection
Format: in vivo, human
Details: for initial response of asthma and coughing to the antibiotic regimen: ciprofloxacin 2×1000 mg, Zithromax 1×500 mg daily and TOBI 2×5mg given together; for severity of asthma, frequency of coughing and quantity of expectorated mucus after three months on the antibiotics: ciprofloxacin, Zithromax and TOBI given together
Text: I. A cystic fibrosis patient described their asthma as increasingly severe and being present constantly during the day. They reported being more short-breathed than previously, often experiencing difficulty breathing after walking only 50 meters. They also reported an increasingly persistent cough, which escalated to almost every minute. They also described coughing up a “fluorescent light green” mucus. The patient further reported losing about 3.5 kg of weight.
After a lab test by their cystic fibrosis doctor, the patient was diagnosed with a Pseudomonas aeruginosa infection. They were prescribed the antibiotics ciprofloxacin (2×1000 mg), Zithromax® (azithromycin, 1×500 mg daily) and TOBI, an aerosolized form of tobramycin (2×5mg). […]
The patient reports that during the past 3 months they have resumed using the lactoferrin/OPC combination, as well as TOBI twice a day and Zithromax, and pulmozyme.

## O=C(O)c1cn(C2CC2)c2cc(N3CCNCC3)c(F)cc2c1=O [ciprofloxacin]
  initial response of asthma and coughing to the antibiotic regimen: initial noticeable decrease in both the asthma and coughing
  severity of asthma, frequency of coughing and quantity of expectorated mucus after three months on the antibiotics: began increasing

## CC[C@H]1OC(=O)[C@H](C)[C@@H](O[C@H]2C[C@@](C)(OC)[C@@H](O)[C@H](C)O2)[C@H](C)[C@@H](O[C@@H]2O[C@H](C)C[C@H](N(C)C)[C@H]2O)[C@](C)(O)C[C@@H](C)CN(C)[C@H](C)[C@@H](O)[C@]1(C)O [Zithromax, azithromycin]
  initial response of asthma and coughing to the antibiotic regimen: initial noticeable decrease in both the asthma and coughing
  severity of asthma, frequency of coughing and quantity of expectorated mucus after three months on the antibiotics: began increasing
